Experiments:
Type in all cases: in vivo
Annual bluegrass [1] = experiment: Pre-emergence herbicide test; settings: read-out: % plant inhibition (Anbg); for inhibition at 1120 g/ha: 1.12 kg/ha
Experimental: (§1) The tests for pre-emergence herbicide activity are conducted as follows:
(§2) Topsoil is placed in an aluminum pan and compacted to a depth of 0.95 to 1.27 cm from the top of the pan. On the top of the soil is placed a predetermined number of seeds of each of several monocotyledonous and dicotyledonous annual plant species and/or vegetative propagules of various perennial plant species. A known amount of the active ingredient dissolved or suspended in an organic solvent, e.g., acetone, or water as carrier is then applied directly to the seed bed, which is then covered with a layer of untreated topsoil to level fill the pan. After treatment, the pans are moved to a greenhouse bench where they are watered from below as needed to give adequate moisture for germination and growth.
(§3) Approximately 10-14 days (usually 11 days) after seeding and treating, the pans are observed and the results (% inhibition) are recorded.
(§4) Tables 7 and 7A below summarize the results of the pre-emergence herbicidal activity tests of compounds of this invention in weeds. The herbicidal rating shown in these tables is the percent inhibition of each plant species. The plant species usually regarded as weeds which are utilized in one set of tests, the data for which are shown in the tables, are identified by letter headings above the columns in accordance with the following legend: […]

Barnyardgrass [2] = experiment: Pre-emergence herbicide test; settings: Echinochloa crus-galli, read-out: % plant inhibition (Bygr); for inhibition at 1120 g/ha: 1.12 kg/ha
Experimental: as §1, §2, §3, §4

Cocklebur [3] = experiment: Pre-emergence herbicide test; settings: Xanthium strumarium, read-out: % plant inhibition (Cobu); for inhibition at 1120 g/ha: 1.12 kg/ha
Experimental: as §1, §2, §3, §4

Downy Brome [4] = experiment: Pre-emergence herbicide test; settings: Bromus tectorum, read-out: % plant inhibition (Dobr); for inhibition at 1120 g/ha: 1.12 kg/ha
Experimental: as §1, §2, §3, §4

Indian Mustard [5] = experiment: Pre-emergence herbicide test; settings: Brassica juncea, read-out: % plant inhibition (Inmu); for inhibition at 1120 g/ha: 1.12 kg/ha
Experimental: as §1, §2, §3, §4

Morningglory [6] = experiment: Pre-emergence herbicide test; settings: Ipomoea, read-out: % plant inhibition (Mogl); for inhibition at 1120 g/ha: 1.12 kg/ha
Experimental: as §1, §2, §3, §4

Seedling johnsongrass [7] = experiment: Pre-emergence herbicide test; settings: Sorghum halepense, read-out: % plant inhibition (Sejg); for inhibition at 1120 g/ha: 1.12 kg/ha
Experimental: as §1, §2, §3, §4

Velvetleaf [8] = experiment: Pre-emergence herbicide test; settings: Abutilon theophrasti, read-out: % plant inhibition (Vele); for inhibition at 1120 g/ha: 1.12 kg/ha
Experimental: as §1, §2, §3, §4

Wild buckwheat [9] = experiment: Pre-emergence herbicide test; settings: Fallopia convolvulus, read-out: % plant inhibition (Wibw); for inhibition at 1120 g/ha: 1.12 kg/ha
Experimental: as §1, §2, §3, §4

Yellow nutsedge [10] = experiment: Pre-emergence herbicide test; settings: Cyperus, read-out: % plant inhibition (Yens); for inhibition at 1120 g/ha: 1.12 kg/ha
Experimental: as §1, §2, §3, §4

Annual bluegrass [11] = experiment: Post-emergence herbicide test; settings: read-out: % plant inhibition (Anbg); for inhibition at 1120 g/ha: 1.12 kg/ha
Description: (§5) Topsoil is placed in aluminum pans having holes in the bottom and compacted to a depth of 0.95 to 1.27 cm from the top of the pan. A predetermined number of seeds of each of several dicotyledonous and monocotyledonous annual plant species and/or vegetative propagules for the perennial plant species are placed on the soil and pressed into the soil surface. The seeds and/or vegetative propagules are covered with soil and leveled. The pans are then placed on a bench in the greenhouse and watered from below as needed. After the plants reach the desired age (two to three weeks), each pan, is removed individually to a spraying chamber and sprayed by means of an atomizer, operating at a spray pressure of 170.3 kPa (10 psig) at the application rates noted. In the spray solution is an amount of an emulsifying agent mixture to give a spray solution or suspension which contains about 0.4% by volume of the emulsifier. The spray solution or suspension contains a sufficient amount of the candidate chemical in order to give application rates of the active ingredient corresponding to those shown in Tables 8 and 8A, while applying a total amount of solution or suspension equivalent to 1870 L/Ha (200 gallons/acre). The pans were returned to the greenhouse and watered as before and the injury to the plants as compared to the control is observed at approximately 10-14 days (usually 11 days) and in some instances observed again at 24-28 days (usually 25 days) after spraying. The post-emergent herbicidal activity shown in these tables is the percent inhibition of each plant species.

Barnyardgrass [12] = experiment: Post-emergence herbicide test; settings: Echinochloa crus-galli, read-out: % plant inhibition (Bygr); for inhibition at 1120 g/ha: 1.12 kg/ha
Description: as §5

Cocklebur [13] = experiment: Post-emergence herbicide test; settings: Xanthium strumarium, read-out: % plant inhibition (Cobu); for inhibition at 1120 g/ha: 1.12 kg/ha
Description: as §5

Downy Brome [14] = experiment: Post-emergence herbicide test; settings: Bromus tectorum, read-out: % plant inhibition (Dobr); for inhibition at 1120 g/ha: 1.12 kg/ha
Description: as §5

Indian Mustard [15] = experiment: Post-emergence herbicide test; settings: Brassica juncea, read-out: % plant inhibition (Inmu); for inhibition at 1120 g/ha: 1.12 kg/ha
Description: as §5

Morningglory [16] = experiment: Post-emergence herbicide test; settings: Ipomoea, read-out: % plant inhibition (Mogl); for inhibition at 1120 g/ha: 1.12 kg/ha
Description: as §5

Seedling johnsongrass [17] = experiment: Post-emergence herbicide test; settings: Sorghum halepense, read-out: % plant inhibition (Sejg); for inhibition at 1120 g/ha: 1.12 kg/ha
Description: as §5

Velvetleaf [18] = experiment: Post-emergence herbicide test; settings: Abutilon theophrasti, read-out: % plant inhibition (Vele); for inhibition at 1120 g/ha: 1.12 kg/ha
Description: as §5

Wild buckwheat [19] = experiment: Post-emergence herbicide test; settings: Fallopia convolvulus, read-out: % plant inhibition (Wibw); for inhibition at 1120 g/ha: 1.12 kg/ha
Description: as §5

Yellow nutsedge [20] = experiment: Post-emergence herbicide test; settings: Cyperus, read-out: % plant inhibition (Yens); for inhibition at 1120 g/ha: 1.12 kg/ha
Description: as §5

Q: Which inhibition at 1120 g/ha (Annual bluegrass [1]) does the source give for `C#CCOc1cc(-c2nn(C)c(C(F)(F)F)c2Cl)c(F)cc1Br` [Compound 96] here?
A: 100%

Q: And the inhibition at 1120 g/ha (Barnyardgrass [2])?
A: 80%

Q: And the inhibition at 1120 g/ha (Cocklebur [3])?
A: 60%

Q: And the inhibition at 1120 g/ha (Downy Brome [4])?
A: 100%

Q: And the inhibition at 1120 g/ha (Indian Mustard [5])?
A: 100%

Q: What about the inhibition at 1120 g/ha (Morningglory [6]) of the same compound?
A: 100%

Q: And the inhibition at 1120 g/ha (Seedling johnsongrass [7])?
A: 90%

Q: And the inhibition at 1120 g/ha (Velvetleaf [8])?
A: 100%

Q: What about the inhibition at 1120 g/ha (Wild buckwheat [9]) of the same compound?
A: 100%

Q: And the inhibition at 1120 g/ha (Yellow nutsedge [10])?
A: 20%

Q: What about the inhibition at 1120 g/ha (Annual bluegrass [11]) of the same compound?
A: 100%

Q: And the inhibition at 1120 g/ha (Barnyardgrass [12])?
A: 100%

Q: And the inhibition at 1120 g/ha (Cocklebur [13])?
A: 90%

Q: And the inhibition at 1120 g/ha (Downy Brome [14])?
A: 100%

Q: And the inhibition at 1120 g/ha (Indian Mustard [15])?
A: 100%

Q: And the inhibition at 1120 g/ha (Morningglory [16])?
A: 100%

Q: What about the inhibition at 1120 g/ha (Seedling johnsongrass [17]) of the same compound?
A: 100%

Q: What about the inhibition at 1120 g/ha (Velvetleaf [18]) of the same compound?
A: 100%

Q: And the inhibition at 1120 g/ha (Wild buckwheat [19])?
A: 100%

Q: And the inhibition at 1120 g/ha (Yellow nutsedge [20])?
A: 40%

Q: For `Cn1nc(-c2cc(N)c(Cl)cc2F)c(Cl)c1C(F)F` [Compound 178], which inhibition at 1120 g/ha (Annual bluegrass [1]) is on record?
A: 20%

Q: And the inhibition at 1120 g/ha (Barnyardgrass [2])?
A: 10%

Q: What about the inhibition at 1120 g/ha (Cocklebur [3]) of the same compound?
A: 20%

Q: And the inhibition at 1120 g/ha (Downy Brome [4])?
A: 30%

Q: What about the inhibition at 1120 g/ha (Indian Mustard [5]) of the same compound?
A: 90%

Q: And the inhibition at 1120 g/ha (Morningglory [6])?
A: 50%

Q: And the inhibition at 1120 g/ha (Seedling johnsongrass [7])?
A: 10%

Q: And the inhibition at 1120 g/ha (Velvetleaf [8])?
A: 100%

Q: And the inhibition at 1120 g/ha (Wild buckwheat [9])?
A: 100%

Q: And the inhibition at 1120 g/ha (Yellow nutsedge [10])?
A: 0%

Q: And the inhibition at 1120 g/ha (Annual bluegrass [11])?
A: 90%

Q: What about the inhibition at 1120 g/ha (Barnyardgrass [12]) of the same compound?
A: 70%

Q: What about the inhibition at 1120 g/ha (Cocklebur [13]) of the same compound?
A: 90%

Q: And the inhibition at 1120 g/ha (Downy Brome [14])?
A: 90%

Q: What about the inhibition at 1120 g/ha (Indian Mustard [15]) of the same compound?
A: 70%

Q: And the inhibition at 1120 g/ha (Morningglory [16])?
A: 100%

Q: What about the inhibition at 1120 g/ha (Seedling johnsongrass [17]) of the same compound?
A: 70%

Q: What about the inhibition at 1120 g/ha (Velvetleaf [18]) of the same compound?
A: 100%

Q: What about the inhibition at 1120 g/ha (Wild buckwheat [19]) of the same compound?
A: 100%

Q: What about the inhibition at 1120 g/ha (Yellow nutsedge [20]) of the same compound?
A: 0%

Q: For `Cn1nc(-c2cc(CC(N)=O)c(Cl)cc2F)c(Cl)c1C(F)(F)F` [Compound 112], which inhibition at 11210 g/ha (Annual bluegrass [1]; 11.21 kg/ha) is on record?
A: 100%

Q: And the inhibition at 11210 g/ha (Barnyardgrass [2]; 11.21 kg/ha)?
A: 100%

Q: And the inhibition at 11210 g/ha (Cocklebur [3]; 11.21 kg/ha)?
A: 40%

Q: What about the inhibition at 11210 g/ha (Downy Brome [4]; 11.21 kg/ha) of the same compound?
A: 20%

Q: What about the inhibition at 11210 g/ha (Indian Mustard [5]; 11.21 kg/ha) of the same compound?
A: 100%

Q: And the inhibition at 11210 g/ha (Morningglory [6]; 11.21 kg/ha)?
A: 100%

Q: What about the inhibition at 11210 g/ha (Seedling johnsongrass [7]; 11.21 kg/ha) of the same compound?
A: 90%

Q: What about the inhibition at 11210 g/ha (Velvetleaf [8]; 11.21 kg/ha) of the same compound?
A: 100%

Q: And the inhibition at 11210 g/ha (Wild buckwheat [9]; 11.21 kg/ha)?
A: 90%

Q: And the inhibition at 11210 g/ha (Yellow nutsedge [10]; 11.21 kg/ha)?
A: 80%

Q: What about the inhibition at 11210 g/ha (Annual bluegrass [11]; 11.21 kg/ha) of the same compound?
A: 30%

Q: What about the inhibition at 11210 g/ha (Barnyardgrass [12]; 11.21 kg/ha) of the same compound?
A: 60%

Q: And the inhibition at 11210 g/ha (Cocklebur [13]; 11.21 kg/ha)?
A: 60%

Q: And the inhibition at 11210 g/ha (Downy Brome [14]; 11.21 kg/ha)?
A: 0%

Q: And the inhibition at 11210 g/ha (Indian Mustard [15]; 11.21 kg/ha)?
A: 40%

Q: And the inhibition at 11210 g/ha (Morningglory [16]; 11.21 kg/ha)?
A: 80%

Q: And the inhibition at 11210 g/ha (Seedling johnsongrass [17]; 11.21 kg/ha)?
A: 30%

Q: What about the inhibition at 11210 g/ha (Velvetleaf [18]; 11.21 kg/ha) of the same compound?
A: 100%

Q: And the inhibition at 11210 g/ha (Wild buckwheat [19]; 11.21 kg/ha)?
A: 70%

Q: And the inhibition at 11210 g/ha (Yellow nutsedge [20]; 11.21 kg/ha)?
A: 40%

Q: How did the inhibition at 1120 g/ha (Annual bluegrass [1]) turn out when `COCCOCc1cc(-c2nn(C)c(C(F)(F)F)c2Cl)c(F)cc1Cl` [Compound 117] was run?
A: 100%

Q: And the inhibition at 1120 g/ha (Barnyardgrass [2])?
A: 100%

Q: What about the inhibition at 1120 g/ha (Cocklebur [3]) of the same compound?
A: 70%

Q: What about the inhibition at 1120 g/ha (Downy Brome [4]) of the same compound?
A: 90%

Q: What about the inhibition at 1120 g/ha (Indian Mustard [5]) of the same compound?
A: 100%

Q: And the inhibition at 1120 g/ha (Morningglory [6])?
A: 90%

Q: What about the inhibition at 1120 g/ha (Seedling johnsongrass [7]) of the same compound?
A: 70%

Q: What about the inhibition at 1120 g/ha (Velvetleaf [8]) of the same compound?
A: 100%

Q: What about the inhibition at 1120 g/ha (Wild buckwheat [9]) of the same compound?
A: 100%

Q: And the inhibition at 1120 g/ha (Yellow nutsedge [10])?
A: 0%

Q: And the inhibition at 1120 g/ha (Annual bluegrass [11])?
A: 90%

Q: And the inhibition at 1120 g/ha (Barnyardgrass [12])?
A: 100%

Q: And the inhibition at 1120 g/ha (Cocklebur [13])?
A: 90%

Q: What about the inhibition at 1120 g/ha (Downy Brome [14]) of the same compound?
A: 100%

Q: What about the inhibition at 1120 g/ha (Indian Mustard [15]) of the same compound?
A: 90%

Q: And the inhibition at 1120 g/ha (Morningglory [16])?
A: 100%

Q: And the inhibition at 1120 g/ha (Seedling johnsongrass [17])?
A: 100%

Q: What about the inhibition at 1120 g/ha (Velvetleaf [18]) of the same compound?
A: 100%

Q: What about the inhibition at 1120 g/ha (Wild buckwheat [19]) of the same compound?
A: 100%

Q: What about the inhibition at 1120 g/ha (Yellow nutsedge [20]) of the same compound?
A: 20%
